Experimental data published in ChEMBL document CHEMBL1201862, “PubChem BioAssay data set” (2004).
Active and inactive are the calls of the source. Rule as the data show it: actives have a measured IC50 and inactives only a lower limit.

Biological target: Envelope glycoprotein gp160 (Human immunodeficiency virus 1, UniProt Q6QLK5)
Assay: inhibitors of HIV fusion peptide binding, primary screen, biochemical, uHTS, fluorescence dequenching (AID 1986)

Envelope glycoprotein gp160, sequence (Q6QLK5 whole entry, the tested form may be a part): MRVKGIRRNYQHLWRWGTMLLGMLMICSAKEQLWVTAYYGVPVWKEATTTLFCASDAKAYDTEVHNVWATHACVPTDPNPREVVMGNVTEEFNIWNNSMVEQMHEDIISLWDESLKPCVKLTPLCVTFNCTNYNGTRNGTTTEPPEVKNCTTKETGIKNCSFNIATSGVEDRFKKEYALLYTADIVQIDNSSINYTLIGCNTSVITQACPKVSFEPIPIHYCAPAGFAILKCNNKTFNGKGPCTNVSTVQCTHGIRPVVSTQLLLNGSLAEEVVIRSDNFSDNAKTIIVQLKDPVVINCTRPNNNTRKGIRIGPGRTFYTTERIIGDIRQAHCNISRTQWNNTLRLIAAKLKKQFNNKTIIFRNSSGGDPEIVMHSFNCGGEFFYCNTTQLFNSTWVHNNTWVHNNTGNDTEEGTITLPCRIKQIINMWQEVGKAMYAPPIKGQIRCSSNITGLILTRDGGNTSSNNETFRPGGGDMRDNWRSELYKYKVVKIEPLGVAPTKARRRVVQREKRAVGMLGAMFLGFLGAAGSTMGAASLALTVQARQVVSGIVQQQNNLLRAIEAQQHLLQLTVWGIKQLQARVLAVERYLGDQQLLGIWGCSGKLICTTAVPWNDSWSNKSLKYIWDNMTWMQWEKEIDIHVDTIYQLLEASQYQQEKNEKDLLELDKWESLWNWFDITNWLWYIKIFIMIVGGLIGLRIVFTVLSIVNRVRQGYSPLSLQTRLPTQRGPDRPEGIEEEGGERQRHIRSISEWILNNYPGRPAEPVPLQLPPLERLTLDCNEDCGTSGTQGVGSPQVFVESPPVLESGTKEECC

CCOc1cc(/C=C2\C(=N)N3N=C(S(C)(=O)=O)SC3=NC2=O)ccc1OCCOc1cccc(OC)c1
IC50: 12 µM (active)

O=[N+]([O-])c1cc([N+](=O)[O-])c2oc(-c3ccccc3)c(Br)c2c1O
IC50: 8.02 µM (active)

COc1cc(/C=C2/SC(=S)N(Cc3ccccc3)C2=O)ccc1OCC(=O)O
IC50: 17.3 µM (active)
